# Laboratory results published in ChEMBL document CHEMBL1201862, “PubChem BioAssay data set” (2004).
# Calls of active or inactive are those of the source.
# Legend:
# [1] = biological target: T1, Leucine aminopeptidase (Plasmodium falciparum 3D7, UniProt Q8IL11); experiment: P. falciparum M17LAP inhibitors, primary screen, biochemical, fluorogenic H-Leu-NHMec substrate, 1536-well (AID 1619); type: functional
# T1 sequence (Q8IL11 whole entry): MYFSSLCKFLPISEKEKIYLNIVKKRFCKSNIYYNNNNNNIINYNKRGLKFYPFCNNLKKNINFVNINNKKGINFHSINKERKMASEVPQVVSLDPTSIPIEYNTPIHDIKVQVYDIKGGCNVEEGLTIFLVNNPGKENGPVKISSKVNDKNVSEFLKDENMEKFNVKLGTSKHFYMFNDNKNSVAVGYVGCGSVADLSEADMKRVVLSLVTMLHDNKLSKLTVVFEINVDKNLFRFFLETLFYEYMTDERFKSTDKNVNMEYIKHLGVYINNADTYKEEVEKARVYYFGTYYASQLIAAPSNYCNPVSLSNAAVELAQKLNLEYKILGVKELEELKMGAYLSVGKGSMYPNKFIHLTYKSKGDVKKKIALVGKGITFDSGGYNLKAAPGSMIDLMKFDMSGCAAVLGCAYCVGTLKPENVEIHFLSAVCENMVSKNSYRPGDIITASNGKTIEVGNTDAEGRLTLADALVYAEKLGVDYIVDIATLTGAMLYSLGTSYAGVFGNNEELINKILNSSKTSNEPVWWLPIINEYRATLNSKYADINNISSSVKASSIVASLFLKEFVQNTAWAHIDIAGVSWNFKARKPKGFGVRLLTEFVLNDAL
# [2] = inhibitors of clade B AD8 Env fusion, dose response, cell-based, cherry-pick (AID 652062); type: functional;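 also: luciferase signal from cell-cell fusion driven by HIV-1 clade B AD8 Env; potency is for inhibitors of fusion seen as a drop in luminescence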
# [3] = inhibitors of HIV Env-driven cell fusion, dose response, cherry-pick (AID 652057); type: functional, cell-based
# [4] = ZM109 Env clade C HIV-1 fusion inhibitors, dose response, HeLa effector, CEM target cells, luciferase, cherry-pick (AID 652058); type: functional, cell-based
# [5] = biological target: T2, Estrogen receptor (Homo sapiens, UniProt P03372);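 also: potency for inhibiting coactivator peptide recruitment to the receptor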
# T2 sequence (P03372 whole entry): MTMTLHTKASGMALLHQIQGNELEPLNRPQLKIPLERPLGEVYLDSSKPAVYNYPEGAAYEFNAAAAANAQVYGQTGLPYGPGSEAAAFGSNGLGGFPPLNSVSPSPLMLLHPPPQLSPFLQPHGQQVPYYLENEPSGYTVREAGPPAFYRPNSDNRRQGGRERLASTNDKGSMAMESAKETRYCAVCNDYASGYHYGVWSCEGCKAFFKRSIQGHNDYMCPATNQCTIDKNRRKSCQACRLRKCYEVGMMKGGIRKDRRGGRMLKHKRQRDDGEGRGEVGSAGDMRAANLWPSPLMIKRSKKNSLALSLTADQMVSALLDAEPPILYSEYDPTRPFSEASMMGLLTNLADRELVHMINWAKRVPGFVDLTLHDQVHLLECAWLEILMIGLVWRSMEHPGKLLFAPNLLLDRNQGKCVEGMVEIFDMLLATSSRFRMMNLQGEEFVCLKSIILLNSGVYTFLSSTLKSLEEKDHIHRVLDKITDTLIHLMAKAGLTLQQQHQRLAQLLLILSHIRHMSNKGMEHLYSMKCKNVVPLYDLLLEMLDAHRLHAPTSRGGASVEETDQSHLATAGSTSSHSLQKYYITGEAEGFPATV
# [6] = growth suppression of PTEN-null colon cells, dose response, cell-based, HCT116 PTEN knockout (AID 1047); type: functional;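 also: HCT116 colon tumor cells with PTEN knocked out; cells exposed to compound for 60 hours before readout; potency for loss of cell viability measured by luminescence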
# [7] = growth suppression of beta-catenin-knockout colon cells, dose response, cell-based, HCT116, human colon tumor (AID 1045); type: functional;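 also: HCT116 colon tumor cells with beta catenin knocked out; cells exposed to compound for 60 hours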
# [8] = biological target: Paired box protein Pax-8 (Homo sapiens, UniProt Q06710); experiment: inhibitors of PAX8-driven TPO luciferase reporter, dose response, RMG-I cells, cherry-pick (AID 687027); type: functional, cell-based;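 also: luciferase reporter driven by Pax8 target thyroperoxidase promoter measured by SteadyGlo luminescence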
# Paired box protein Pax-8, sequence (Q06710 whole entry): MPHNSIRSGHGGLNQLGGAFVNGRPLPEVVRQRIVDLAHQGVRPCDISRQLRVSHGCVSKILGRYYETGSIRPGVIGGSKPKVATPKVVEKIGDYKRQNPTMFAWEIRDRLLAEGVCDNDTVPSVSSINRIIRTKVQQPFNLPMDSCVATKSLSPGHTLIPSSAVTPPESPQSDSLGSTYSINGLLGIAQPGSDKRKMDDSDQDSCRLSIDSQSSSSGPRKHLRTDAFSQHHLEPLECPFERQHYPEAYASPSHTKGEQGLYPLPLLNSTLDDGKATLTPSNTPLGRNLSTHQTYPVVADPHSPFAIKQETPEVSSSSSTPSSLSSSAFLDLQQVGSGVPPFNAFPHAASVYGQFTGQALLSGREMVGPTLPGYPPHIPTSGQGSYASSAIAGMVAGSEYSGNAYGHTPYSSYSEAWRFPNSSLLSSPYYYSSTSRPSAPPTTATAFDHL
# [9] = biological target: T3, Short transient receptor potential channel 4 (Mus musculus, UniProt Q9QUQ5); experiment: mouse TRPC4 channel inhibitors, dose response, cell-based, HEK293 TRPC4/mu-opioid, Fluo-4 calcium (AID 434942); type: functional;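 also: potency of inhibitors blocking the TRPC4 calcium response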
# T3 sequence (Q9QUQ5 whole entry): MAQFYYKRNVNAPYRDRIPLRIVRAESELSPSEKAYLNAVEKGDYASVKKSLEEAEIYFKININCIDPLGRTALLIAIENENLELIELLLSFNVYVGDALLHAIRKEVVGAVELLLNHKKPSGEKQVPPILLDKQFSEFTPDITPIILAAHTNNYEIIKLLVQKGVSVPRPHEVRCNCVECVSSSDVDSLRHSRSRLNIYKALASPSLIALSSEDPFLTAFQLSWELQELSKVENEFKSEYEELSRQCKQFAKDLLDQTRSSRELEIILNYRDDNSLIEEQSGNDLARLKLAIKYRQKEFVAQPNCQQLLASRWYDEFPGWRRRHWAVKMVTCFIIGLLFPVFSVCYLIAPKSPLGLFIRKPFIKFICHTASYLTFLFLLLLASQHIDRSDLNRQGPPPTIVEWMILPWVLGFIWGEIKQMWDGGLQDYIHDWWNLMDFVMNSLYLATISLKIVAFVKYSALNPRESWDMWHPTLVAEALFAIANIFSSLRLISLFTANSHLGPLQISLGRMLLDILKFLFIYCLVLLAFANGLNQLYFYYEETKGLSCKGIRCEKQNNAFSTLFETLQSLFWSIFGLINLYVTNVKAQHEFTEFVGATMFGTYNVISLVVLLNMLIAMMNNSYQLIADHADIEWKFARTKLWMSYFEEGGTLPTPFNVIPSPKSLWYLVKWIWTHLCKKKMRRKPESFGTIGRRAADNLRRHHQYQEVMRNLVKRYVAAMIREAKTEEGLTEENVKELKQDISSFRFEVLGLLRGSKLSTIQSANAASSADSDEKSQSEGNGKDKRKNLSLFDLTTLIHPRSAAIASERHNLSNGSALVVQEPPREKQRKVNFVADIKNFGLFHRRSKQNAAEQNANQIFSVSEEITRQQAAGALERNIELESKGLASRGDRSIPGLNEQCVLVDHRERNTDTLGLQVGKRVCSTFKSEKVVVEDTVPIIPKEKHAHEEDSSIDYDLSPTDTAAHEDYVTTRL
# [10] = biological target: T4, Polyadenylate-binding protein 1 (Homo sapiens, UniProt P11940); experiment: PABP1 MLLE–PAM2 binding inhibitor potency, dose response, biochemical, fluorescence polarization, FITC-PAM2 peptide (AID 602259); type: functional; conditions: read-out: IC50_Mean
# T4 sequence (P11940 whole entry): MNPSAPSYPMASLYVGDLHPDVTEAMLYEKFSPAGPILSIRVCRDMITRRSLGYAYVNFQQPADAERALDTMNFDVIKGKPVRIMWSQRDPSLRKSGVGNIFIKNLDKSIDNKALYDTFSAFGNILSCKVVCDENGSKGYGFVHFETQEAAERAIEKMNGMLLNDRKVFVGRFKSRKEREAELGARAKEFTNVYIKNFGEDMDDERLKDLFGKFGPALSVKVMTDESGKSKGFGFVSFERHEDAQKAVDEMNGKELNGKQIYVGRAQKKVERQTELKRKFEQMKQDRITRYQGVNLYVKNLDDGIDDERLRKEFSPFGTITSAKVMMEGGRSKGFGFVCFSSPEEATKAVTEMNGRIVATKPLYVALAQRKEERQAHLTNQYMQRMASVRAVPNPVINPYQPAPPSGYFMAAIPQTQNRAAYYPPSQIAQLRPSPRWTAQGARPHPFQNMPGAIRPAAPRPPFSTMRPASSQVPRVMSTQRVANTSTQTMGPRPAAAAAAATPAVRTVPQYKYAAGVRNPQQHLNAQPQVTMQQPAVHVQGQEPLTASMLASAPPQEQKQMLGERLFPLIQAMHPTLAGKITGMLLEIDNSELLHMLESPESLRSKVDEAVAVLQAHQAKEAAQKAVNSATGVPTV
# [11] = biological target: T4, Polyadenylate-binding protein 1; experiment: PABP1 MLLE–PAM2 interaction inhibitors, dose response, miRNA deadenylation inhibitor project, biochemical, fluorescence polarization, Cy5-PAM2 peptide, secondary (AID 602260); type: functional; conditions: read-out: IC50_Mean
# [12] = biological target: T5, RNA-binding protein pos-1 (Caenorhabditis elegans, UniProt G5EF15); experiment: inhibitors of POS-1/mex-3 RNA binding, dose response, biochemical, fluorescence polarization (AID 1964);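 also: purified POS-1 fused to maltose binding protein made in E. coli; potency of compounds blocking POS-1 binding to fluorescent RNA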
# T5 sequence (G5EF15 whole entry): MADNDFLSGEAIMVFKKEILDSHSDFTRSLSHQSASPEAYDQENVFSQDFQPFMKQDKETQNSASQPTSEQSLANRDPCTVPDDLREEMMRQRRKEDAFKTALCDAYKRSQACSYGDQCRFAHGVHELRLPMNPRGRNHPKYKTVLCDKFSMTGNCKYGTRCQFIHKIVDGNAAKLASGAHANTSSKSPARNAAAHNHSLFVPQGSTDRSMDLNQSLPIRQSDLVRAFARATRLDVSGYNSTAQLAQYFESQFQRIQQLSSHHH
# [13] = biological target: T6, Zinc finger protein mex-5 (Caenorhabditis elegans, UniProt Q9XUB2); experiment: MEX-5/TCR-2 RNA interaction inhibitors, dose response, biochemical, C. elegans, fluorescence polarization (AID 1960)
# T6 sequence (Q9XUB2 whole entry): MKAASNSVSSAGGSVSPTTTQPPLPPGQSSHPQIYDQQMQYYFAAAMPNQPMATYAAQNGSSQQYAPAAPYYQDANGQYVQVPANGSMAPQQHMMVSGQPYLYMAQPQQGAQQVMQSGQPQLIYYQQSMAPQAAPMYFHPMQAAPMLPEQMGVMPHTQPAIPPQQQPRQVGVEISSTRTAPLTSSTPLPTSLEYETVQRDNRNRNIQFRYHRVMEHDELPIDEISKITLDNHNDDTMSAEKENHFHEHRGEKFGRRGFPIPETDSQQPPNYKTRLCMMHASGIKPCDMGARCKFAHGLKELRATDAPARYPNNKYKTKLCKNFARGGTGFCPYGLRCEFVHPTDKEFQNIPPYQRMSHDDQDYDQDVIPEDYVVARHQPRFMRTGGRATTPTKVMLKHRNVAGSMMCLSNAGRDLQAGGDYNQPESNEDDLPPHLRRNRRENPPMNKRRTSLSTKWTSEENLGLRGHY
# [14] = biological target: Cytochrome P450 2D6 (Homo sapiens, UniProt P10635);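 also: CYP2D6 member of a cytochrome P450 panel assay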
# Cytochrome P450 2D6, sequence (P10635 whole entry): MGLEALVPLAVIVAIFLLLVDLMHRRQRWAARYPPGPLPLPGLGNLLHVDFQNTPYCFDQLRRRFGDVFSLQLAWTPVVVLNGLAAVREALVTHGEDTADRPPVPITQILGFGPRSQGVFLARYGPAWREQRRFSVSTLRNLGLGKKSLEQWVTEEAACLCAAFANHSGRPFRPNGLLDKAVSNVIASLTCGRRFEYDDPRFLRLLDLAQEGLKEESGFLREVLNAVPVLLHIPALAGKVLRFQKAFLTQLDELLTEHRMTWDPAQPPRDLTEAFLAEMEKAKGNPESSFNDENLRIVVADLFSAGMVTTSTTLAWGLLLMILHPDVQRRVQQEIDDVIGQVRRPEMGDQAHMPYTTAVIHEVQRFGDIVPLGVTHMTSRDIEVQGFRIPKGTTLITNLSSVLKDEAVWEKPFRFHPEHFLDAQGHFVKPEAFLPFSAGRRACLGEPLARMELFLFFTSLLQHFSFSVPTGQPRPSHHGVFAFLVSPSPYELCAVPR
# [15] = biological target: T7, Cytochrome P450 1A2 (Homo sapiens, UniProt P05177);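 also: PubChem cytochrome P450 panel assay, CYP1A2 panel member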
# T7 sequence (P05177 whole entry): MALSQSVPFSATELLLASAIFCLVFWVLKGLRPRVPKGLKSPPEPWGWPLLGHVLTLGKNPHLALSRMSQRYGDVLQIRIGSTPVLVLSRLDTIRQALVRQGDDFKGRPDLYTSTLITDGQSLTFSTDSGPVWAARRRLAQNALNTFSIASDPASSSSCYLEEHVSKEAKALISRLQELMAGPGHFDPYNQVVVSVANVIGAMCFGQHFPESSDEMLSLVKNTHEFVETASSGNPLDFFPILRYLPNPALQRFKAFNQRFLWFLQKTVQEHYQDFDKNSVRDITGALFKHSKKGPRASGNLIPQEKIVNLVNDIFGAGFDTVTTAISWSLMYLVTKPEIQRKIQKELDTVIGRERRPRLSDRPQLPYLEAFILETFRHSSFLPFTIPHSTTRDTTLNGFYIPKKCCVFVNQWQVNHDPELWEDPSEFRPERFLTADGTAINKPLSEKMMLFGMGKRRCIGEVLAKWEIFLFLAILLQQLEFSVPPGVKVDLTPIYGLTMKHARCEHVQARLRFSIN
# [16] = cytotoxicity toward NIH3T3 fibroblasts, dose response, counter-screen, cell-based, ATP luminescence, mouse fibroblasts (AID 2010); type: functional;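 also: cells exposed to compound for about 90 hours before reading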
# [17] = inhibitors of intracellular T. cruzi replication, confirmation, NIH3T3 host cells, beta-gal luminescence (AID 2044); type: functional, cell-based;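 also: intracellular parasites grown in NIH/3T3 mouse fibroblasts as host cells; luminescent beta-galactosidase reporter signal from transgenic T. cruzi replicating inside host cells; inhibitors lower the luminescence signal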
# [18] = system: H9c2; experiment: cells; type: functional, cell-based; conditions: Rattus norvegicus, H9c2, Myocardium;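 also: confirmatory concentration-response retest of ultra-high-throughput screening hits for modulation of myocardial damage; cell death induced by hydrogen peroxide oxidative stress; compound pretreatment for 60 min then peroxide exposure for 2 h; potency is for protecting the cells against peroxide damage rather than for killing them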
structure (smiles),measurement,setting,value
Cc1nnc(SCC(=O)Nc2cccc(C(F)(F)F)c2)[nH]c1=O,IC50,[1],15.1 µM (active)
COc1ccc(S(=O)(=O)Nc2ccc3c(c2)CC(=O)N([C@H](C)CO)C[C@H](C)[C@H](CN(C)S(=O)(=O)c2cccs2)O3)cc1,AC50,[2],3.88 µM (active)
same,AC50,[3],0.509 µM (active)
COc1ccc(C(=O)NCCc2ccc(Cl)cc2)cc1S(=O)(=O)N1CCCCC1C (stereo not given),AC50,[2],11.4 µM (active)
same,AC50,[4],67.5 µM (active)
same,AC50,[3],21.7 µM (active)
Cc1ccc(S(=O)(=O)Cc2ccc(C(=O)NCc3ccc4c(c3)OCO4)o2)cc1,IC50,[5],37.5 µM (not active)
COc1cc2c(cc1OC)CN(c1nc(CN3CCOCC3)nc3sc4c(c13)CCC(C)C4)CC2 (stereo not given),EC50,[6],9.18 µM (active)
same,EC50,[7],9.91 µM (active)
CCOc1ccc(NCc2nnc(SCC(=O)Nc3nc(-c4ccccc4)cs3)n2-c2ccccc2)cc1,EC50,[6],3.65 µM (active)
same,EC50,[7],3.28 µM (active)
C[C@H](CO)N1C[C@H](C)[C@H](CN(C)Cc2ccc(Cl)c(Cl)c2)Oc2c(NS(=O)(=O)c3ccc(Cl)cc3)cccc2C1=O,AC50,[2],42.9 µM (active)
same,AC50,[4],20.1 µM (active)
same,AC50,[3],26.9 µM (active)
same,AC50,[8],13.7 µM (active)
c1ccc(-c2ccccc2OCCOCCN2CCCCC2)cc1,EC50,[9],2.11 µM (active)
O=c1c2ccccc2nc(SCc2ccccc2)n1CC1CCCO1 (stereo not given),EC50,[9],3.35 µM (active)
CC(=O)/C(=N\Nc1ccc(Cl)cc1Cl)Sc1nnc(-c2ccccc2)n1-c1ccccc1,EC50,[6],9.61 µM (active)
same,EC50,[7],8.46 µM (active)
COC(=O)c1ccc2c(c1)C(=O)/C(=C/c1ccc(C)cc1)O2,EC50,[6],16.8 µM (active)
same,EC50,[7],17.2 µM (active)
CCSc1nnc(NC(=O)C2CCCCC2C(=O)OCC(F)(F)C(F)F)s1 (stereo not given),IC50,[1],76.8 µM (active)
Cc1ccc(/C=c2/sc3nnc(-c4ccccc4Cl)n3c2=O)o1,IC50,[1],28.7 µM (active)
CCc1c(O)nc(SCC(=O)Nc2ccc3c(c2)CCC3)nc1O,IC50,[1],8.08 µM (active)
COc1cccc(C(CNC(=O)C(c2ccccc2)c2ccccc2)N(C)C)c1 (stereo not given),EC50,[9],0.944 µM (active)
COc1ccc2nc3oc(C(=O)N4CCN(c5cccc(C(F)(F)F)c5)CC4)cc3cc2c1,IC50,[5],15.4 µM (active)
O=C(O)c1cc(-c2ccco2)nc2ccccc12,IC50,[10],> 66 µM (inactive)
same,IC50,[5],23.4 µM (active)
same,IC50,[11],> 66 µM (inactive)
CCCn1c(NCc2ccc(C)o2)nc2ccccc21,EC50,[9],5.31 µM (active)
Cc1ccc(C)c(Oc2cc(NC(=O)CCCn3nc(C)c([N+](=O)[O-])c3C)cc([N+](=O)[O-])c2)c1,EC50,[6],21.1 µM (active)
same,EC50,[7],18.9 µM (active)
Cc1ccc(NC(=O)c2sc3nc4c(c(-c5ccco5)c3c2N)CCC4)cc1,EC50,[12],2.13 µM (active)
same,EC50,[13],2.85 µM (active)
same,IC50,[5],> 50 µM (not active)
Cc1nc2sccn2c1-c1nc(-c2cc3ccccc3o2)cs1,IC50,[5],10.7 µM (active)
CCOC(=O)c1ccc(NC(=NS(=O)(=O)c2ccccc2C)c2ccccc2)cc1,EC50,[6],36.4 µM (active)
same,EC50,[7],56.2 µM (active)
same,AC50,[14],17.8 µM (inconclusive)
same,AC50,[15],25.1 µM (inconclusive)
CCOC(=O)CC(=O)CSc1nc(O)c2sc(=S)n(-c3ccccc3)c2n1,IC50,[1],40.6 µM (active)
CCCCn1c(NC(=O)c2ccccc2)nc2ccccc21,EC50,[16],11.3 µM (active)
same,EC50,[17],2.15 µM (active)
same,IC50,[18],9.17 µM (active)
same,EC50,[9],5.96 µM (active)
